Values joined by “and” are separate entries in the source; they are usually repeats but may differ in a detail not shown here. Equal values may be shown once. Toxic doses and inconclusive results are not listed. Rule as the data show it: active = T/C of 150% or more; inactive = T/C below 125%.
System: L1210 leukemia ip in BDF1 mice, survival T/C
Assay: NCI In Vivo Anticancer Drug Screen. Data for tumor model L1210 Leukemia (intraperitoneal) in B6D2F1 (BDF1) mice
Details: endpoint: mean survival time, higher = longer survival
Procedure, shortened: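 Transplanted-tumor mice were given test agent; controls received vehicle only. Survival readings from the two groups were divided (treated over control).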

[1] = dose: 100.0 mg/kg/injection, schedule: Q04DX002 (ip), vehicle: Klucel (hydroxypropylcellulose) (HPC)
[2] = dose: 200.0 mg/kg/injection, schedule: Q04DX002 (ip), vehicle: Klucel (hydroxypropylcellulose) (HPC)
[3] = dose: 400.0 mg/kg/injection, schedule: Q04DX002 (ip), vehicle: Klucel (hydroxypropylcellulose) (HPC)

Measured: T/C

Cc1nnc(NN)nc1C
inactive: dose: 6.25 mg/kg/injection, schedule: Q01DX009 (ip), vehicle: saline with Tween-80 101 % of control | dose: 6.25 mg/kg/injection, schedule: Q04DX003 (ip), vehicle: saline with Tween-80 100 % of control | dose: 12.5 mg/kg/injection, schedule: Q01DX001 (ip), vehicle: saline with Tween-80 112 % of control | dose: 12.5 mg/kg/injection, schedule: Q01DX009 (ip), vehicle: saline with Tween-80 103 % of control | dose: 12.5 mg/kg/injection, schedule: Q04DX003 (ip), vehicle: saline with Tween-80 103 % of control | dose: 25.0 mg/kg/injection, schedule: Q01DX001 (ip), vehicle: saline with Tween-80 100 % of control | dose: 25.0 mg/kg/injection, schedule: Q04DX003 (ip), vehicle: saline with Tween-80 95 % of control

Cc1ccc(NC(=O)NC2CCCCC2)cc1
inactive: dose: 100.0 mg/kg/injection, schedule: Q01DX009 (ip), vehicle: saline with Tween-80 94 % of control | dose: 200.0 mg/kg/injection, schedule: Q01DX009 (ip), vehicle: saline with Tween-80 97 % of control | dose: 400.0 mg/kg/injection, schedule: Q01DX009 (ip), vehicle: saline with Tween-80 92 % of control

C[n+]1ccn(CC(=O)c2ccccc2)c1
inactive: dose: 25.0 mg/kg/injection, schedule: Q01DX009 (ip), vehicle: saline 98 % of control | dose: 50.0 mg/kg/injection, schedule: Q01DX009 (ip), vehicle: saline 112 % of control | dose: 100.0 mg/kg/injection, schedule: Q01DX009 (ip), vehicle: saline 93 % of control

CN(C)C(=S)SSSSC(=S)N(C)C
inactive: [1] 108 % of control | [2] 108 % of control | [3] 99 % of control and 90 % of control

CCOC(=O)C(=O)N(CC)CC
inactive: [1] 98 % of control | [2] 98 % of control | [3] 88 % of control

CCCCCCCCC(O)(CCCCCCC)C(=O)O (centres undefined)
inactive: [1] 95 % of control | [2] 117 % of control | [3] 115 % of control

COc1cc2c(c(OC)c1OC)-c1ccc(OC)c(=O)cc1[C@@H](NC(=O)c1ccccc1)CC2
inactive: dose: 0.13 mg/kg/injection, schedule: Q01DX Z (ip), vehicle: methylcellulose (MC) 87 % of control | dose: 0.2 mg/kg/injection, schedule: Q01DX Z (ip), vehicle: methylcellulose (MC) 120 % of control | dose: 0.29 mg/kg/injection, schedule: Q01DX Z (ip), vehicle: methylcellulose (MC) 122 % of control | dose: 0.44 mg/kg/injection, schedule: Q01DX Z (ip), vehicle: methylcellulose (MC) 95 % of control | dose: 0.75 mg/kg/injection, schedule: Q01DX Z (ip), vehicle: methylcellulose (MC) 101 % of control | dose: 0.8 mg/kg/injection, schedule: Q01DX Z (ip), vehicle: methylcellulose (MC) 103 % of control | dose: 1.2 mg/kg/injection, schedule: Q01DX Z (ip), vehicle: methylcellulose (MC) 106 % of control | dose: 1.6 mg/kg/injection, schedule: Q01DX015 (ip), vehicle: carboxymethylcellulose (CMC) 108 % of control | dose: 1.8 mg/kg/injection, schedule: Q01DX Z (ip), vehicle: methylcellulose (MC) 103 % of control | dose: 2.5 mg/kg/injection, schedule: Q01DX015 (ip), vehicle: carboxymethylcellulose (CMC) 108 % of control | dose: 2.7 mg/kg/injection, schedule: Q01DX Z (ip), vehicle: methylcellulose (MC) 105 % of control | dose: 3.7 mg/kg/injection, schedule: Q01DX015 (ip), vehicle: carboxymethylcellulose (CMC) 123 % of control | dose: 4.0 mg/kg/injection, schedule: Q01DX Z (ip), vehicle: methylcellulose (MC) 114 % of control | dose: 5.0 mg/kg/injection, schedule: Q01DX001 (ip), vehicle: carboxymethylcellulose (CMC) 104 % of control | dose: 5.6 mg/kg/injection, schedule: Q01DX015 (ip), vehicle: carboxymethylcellulose (CMC) 108 % of control | dose: 8.4 mg/kg/injection, schedule: Q01DX015 (ip), vehicle: carboxymethylcellulose (CMC) 86 % of control | dose: 10.0 mg/kg/injection, schedule: Q01DX001 (ip), vehicle: carboxymethylcellulose (CMC) 120 % of control | dose: 20.0 mg/kg/injection, schedule: Q01DX001 (ip), vehicle: carboxymethylcellulose (CMC) 118 % of control | dose: 27.0 mg/kg/injection, schedule: Q01DX001 (ip), vehicle: carboxymethylcellulose (CMC) 120 % of control

CCCCCCC1N(Cc2ccccc2N(C)C)CCCN1Cc1ccccc1N(C)C
inactive: dose: 75.0 mg/kg/injection, schedule: Q01DX001 (ip), vehicle: saline 94 % of control | dose: 150.0 mg/kg/injection, schedule: Q01DX001 (ip), vehicle: saline 94 % of control | dose: 300.0 mg/kg/injection, schedule: Q01DX001 (ip), vehicle: saline 89 % of control

Cc1cn(C2CC(O)C(CF)O2)c(=O)[nH]c1=O (centres undefined)
inactive: dose: 100.0 mg/kg/injection, schedule: Q01DX005 (ip), vehicle: saline 117 % of control | dose: 200.0 mg/kg/injection, schedule: Q01DX005 (ip), vehicle: saline 122 % of control

O=C(O)C(Nc1cccc2ccccc12)c1ccccc1 (centres undefined)
inactive: [1] 97 % of control | [2] 111 % of control

c1ccc(OCc2ccc(COc3ccccc3)cc2)cc1
inactive: dose: 25.0 mg/kg/injection, schedule: Q01DX009 (ip), vehicle: Klucel (hydroxypropylcellulose) (HPC) 98 % of control | dose: 25.0 mg/kg/injection, schedule: Q04DX003 (ip), vehicle: Klucel (hydroxypropylcellulose) (HPC) 97 % of control | dose: 50.0 mg/kg/injection, schedule: Q01DX009 (ip), vehicle: Klucel (hydroxypropylcellulose) (HPC) 92 % of control | dose: 50.0 mg/kg/injection, schedule: Q04DX003 (ip), vehicle: Klucel (hydroxypropylcellulose) (HPC) 94 % of control | dose: 100.0 mg/kg/injection, schedule: Q01DX009 (ip), vehicle: Klucel (hydroxypropylcellulose) (HPC) 95 % of control | dose: 100.0 mg/kg/injection, schedule: Q04DX003 (ip), vehicle: Klucel (hydroxypropylcellulose) (HPC) 92 % of control

COc1cc(C[C@H]2c3cc(OC)c(OC)cc3CCN2C)c(Oc2cc3c(cc2OC)-c2c(OC)c(OC)cc4c2[C@H](C3)N(C)CC4)cc1OC
inactive: dose: 12.0 mg/kg/injection, schedule: Q01DX005 (ip), vehicle: other 110 % of control | dose: 12.0 mg/kg/injection, schedule: Q01DX009 (ip), vehicle: other 97 % of control | dose: 18.0 mg/kg/injection, schedule: Q04DX003 (ip), vehicle: other 107 % of control | dose: 24.0 mg/kg/injection, schedule: Q01DX005 (ip), vehicle: other 106 % of control | dose: 24.0 mg/kg/injection, schedule: Q01DX009 (ip), vehicle: other 105 % of control | dose: 25.0 mg/kg/injection, schedule: Q01DX009 (ip), vehicle: clinical formulation 103 % of control | dose: 27.0 mg/kg/injection, schedule: Q08DX002 (ip), vehicle: other 103 % of control | dose: 36.0 mg/kg/injection, schedule: Q04DX003 (ip), vehicle: other 103 % of control | dose: 48.0 mg/kg/injection, schedule: Q01DX005 (ip), vehicle: other 110 % of control | dose: 48.0 mg/kg/injection, schedule: Q01DX009 (ip), vehicle: other 108 % of control | dose: 50.0 mg/kg/injection, schedule: Q01DX009 (ip), vehicle: clinical formulation 100 % of control | dose: 54.0 mg/kg/injection, schedule: Q08DX002 (ip), vehicle: other 106 % of control | dose: 72.0 mg/kg/injection, schedule: Q04DX003 (ip), vehicle: other 108 % of control | dose: 80.0 mg/kg/injection, schedule: Q01DX015 (ip), vehicle: carboxymethylcellulose (CMC) 88 % of control | dose: 96.0 mg/kg/injection, schedule: Q01DX005 (ip), vehicle: other 108 % of control | dose: 96.0 mg/kg/injection, schedule: Q01DX009 (ip), vehicle: other 105 % of control | dose: 100.0 mg/kg/injection, schedule: Q01DX009 (ip), vehicle: clinical formulation 102 % of control | [1] 104 % of control | dose: 108.0 mg/kg/injection, schedule: Q08DX002 (ip), vehicle: other 102 % of control | dose: 144.0 mg/kg/injection, schedule: Q04DX003 (ip), vehicle: other 103 % of control | dose: 160.0 mg/kg/injection, schedule: Q01DX015 (ip), vehicle: carboxymethylcellulose (CMC) 93 % of control | dose: 192.0 mg/kg/injection, schedule: Q01DX005 (ip), vehicle: other 105 % of control | dose: 192.0 mg/kg/injection, schedule: Q01DX009 (ip), vehicle: other 101 % of control | [2] 86 % of control | dose: 216.0 mg/kg/injection, schedule: Q08DX002 (ip), vehicle: other 95 % of control | dose: 288.0 mg/kg/injection, schedule: Q04DX003 (ip), vehicle: other 97 % of control | [3] 101 % of control

CCCC(C)OC(=O)Nc1cccc(OC(=O)NC)c1 (centres undefined)
inactive: dose: 100.0 mg/kg/injection, schedule: Q04DX003 (ip), vehicle: saline with Tween-80 102 % of control | dose: 200.0 mg/kg/injection, schedule: Q04DX003 (ip), vehicle: saline with Tween-80 98 % of control | dose: 400.0 mg/kg/injection, schedule: Q04DX003 (ip), vehicle: saline with Tween-80 101 % of control

From PubChem BioAssay AID248 (DTP/NCI, 2004)
